# Assays:
# KCHSC = assay: Example III: post-emergence foliar-applied weed control in cereal crops, greenhouse; type: in vivo, Kochia scoparia (L.) Schrad.; conditions: 21 DAA
# Procedure: (§1) Seeds of the desired test plant species were planted in Sun Gro MetroMix® 306 planting mixture, which typically has a pH of 6.0 to 6.8 and an organic matter content of about 30 percent, in plastic pots with a surface area of 103.2 square centimeters (cm^2). When required to ensure good germination and healthy plants, a fungicide treatment and/or other chemical or physical treatment was applied. The plants were grown for 7-36 days in a greenhouse with an approximate 14 hour photoperiod which was maintained at about 18° C. during the day and 17° C. during the night. Nutrients and water were added on a regular basis and supplemental lighting was provided with overhead metal halide 1000-Watt lamps as necessary. The plants were employed for testing when they reached the second or third true leaf stage.
# (§2) Treatments consisted of the benzyl ester of 4-amino-3-chloro-5-fluoro-6-(4-chloro-2-fluoro-3-methoxy-phenyl)pyridine-2-carboxylic acid (Compound A), formulated as an SC (suspension concentrate), and a second cereal herbicide alone and in combination.
# (§3) Measured aliquots of the benzyl ester of 4-amino-3-chloro-5-fluoro-6-(4-chloro-2-fluoro-3-methoxy-phenyl)pyridine-2-carboxylic acid (Compound A) were placed in 25 milliliter (mL) glass vials and diluted in a volume of 1.25% (v/v) Agri-dex crop oil concentrated to obtain stock solutions. Compound requirements are based upon a 12 mL application volume at a rate of 187 liters per hectare (L/ha). Spray solutions of the second cereal herbicide and experimental compound mixtures were prepared by adding the stock solutions to the appropriate amount of dilution solution to form 12 mL spray solution with active ingredients in two- and three-way combinations. Formulated compounds were applied to the plant material with an overhead Mandel track sprayer equipped with an 8002E nozzle calibrated to deliver 187 L/ha over an application area of 0.503 square meters (m^2) at a spray height of 18 inches (46 cm) above average plant canopy. Control plants were sprayed in the same manner with the solvent blank.
# (§4) The treated plants and control plants were placed in a greenhouse as described above and watered by sub-irrigation to prevent wash-off of the test compounds. After 20-22 days, the condition of the test plants as compared with that of the control plants was determined visually and scored on a scale of 0 to 100 percent where 0 corresponds to no injury and 100 corresponds to complete kill.
# (§5) Colby's equation was used to determine the herbicidal effects expected from the mixtures (Colby, S. R. 1967. Calculation of the synergistic and antagonistic response of herbicide combinations. Weeds 15:20-22.).
# CHEAL = assay: as above; type: in vivo, Chenopodium album L.; conditions: 21 DAA
# Procedure: as §1, §2, §3, §4, §5
# CIRAR = assay: as above; type: in vivo, Cirsium arvense (L.) Scop.; conditions: 21 DAA
# Procedure: as §1, §2, §3, §4, §5
# SASKR = assay: as above; type: in vivo, Salsola tragus L.; conditions: 21 DAA
# Procedure: as §1, §2, §3, §4, §5
# SINAR = assay: as above; type: in vivo, Sinapis arvensis L.; conditions: 21 DAA
# Procedure: as §1, §2, §3, §4, §5
# STEME = assay: as above; type: in vivo, Stellaria media (L.) Vill.; conditions: 21 DAA
# Procedure: as §1, §2, §3, §4, §5
# BRAPP = assay: Example I: postemergence foliar-applied weed control, direct seeded rice weeds, greenhouse; type: in vivo; conditions: foliar
# Text: (§6) Seeds or nutlets of the desired test plant species were planted in a soil matrix prepared by mixing a loam or sandy loam soil (e.g., 28.6 percent silt, 18.8 percent clay, and 52.6 percent sand, with a pH of about 5.8 and an organic matter content of about 1.8 percent) and calcareous grit in an 80 to 20 ratio. The soil matrix was contained in plastic pots with a volume of 1 quart and a surface area of 83.6 square centimeters (cm^2). When required to ensure good germination and healthy plants, a fungicide treatment and/or other chemical or physical treatment was applied. The plants were grown for 8-22 days in a greenhouse with an approximate 14 hr photoperiod which was maintained at about 29° C. during the day and 26° C. during the night. Nutrients (Peters Excel® 15-5-15 5-Ca 2-Mg and iron chelate) were applied in the irrigation solution as needed and water was added on a regular basis. Supplemental lighting was provided with overhead metal halide 1000-Watt lamps as necessary. The plants were employed for testing when they reached the first through fourth true leaf stage.
# (§7) Treatments consisted of the acid or esters of 4-amino-3-chloro-5-fluoro-6-(4-chloro-2-fluoro-3-methoxy-phenyl)pyridine-2-carboxylic acid (Compound A), each formulated as an SC (suspension concentrate), and various herbicidal components alone and in combination. Forms of compound A were applied on an acid equivalent basis.
# (§8) Other herbicidal components were applied on an active ingredient basis and included very long chain fatty acid (VLCFA) synthesis-inhibiting and fatty acid/lipid synthesis-inhibiting herbicides acetochlor (technical grade material), acetochlor+dichlormid formulated as Topnotch®, pretilachlor (technical grade material), butachlor formulated as Butachlor EC, fentrazamide formulated as Fentrazamide EC, thiobencarb formulated as Bolero® 8EC, cafenstrole formulated as Himeadow® WP or Lapost® Flowable, benfuresate formulated as Full Shot®, dimethenamid-P formulated as Outlook®, indanofan (technical grade material), flufenacet formulated as Define® DF, mefenacet (technical grade material), S-metolachlor formulated as Dual® II Magnum, pethoxamid formulated as Successor® 600, and pyroxasulfone (technical grade material).
# (§9) Treatment requirements were calculated based upon the rates being tested, the concentration of active ingredient or acid equivalent in the formulation, and a 12 mL application volume at a rate of 187 L/ha.
# (§10) For treatments comprised of formulated compounds, measured amounts of compounds were placed individually in 25 mL glass vials and diluted in a volume of 1.25% (v/v) Agri-Dex® crop oil concentrated to obtain 12× stock solutions. […] Application solutions were prepared by adding an appropriate amount of each stock solution (e.g., 1 mL) and diluted to the appropriate final concentrations with the addition of 10 mL of an aqueous mixture of 1.25% (v/v) crop oil concentrate so that the final spray solutions contained 1.25+/−0.05% (v/v) crop oil concentrate.
# (§11) For treatments comprised of technical compounds, weighed amounts can be placed individually in 25 mL glass vials and dissolved in a volume of 97:3 v/v acetone/DMSO to obtain 12× stock solutions. […] Application solutions can be prepared by adding an appropriate amount of each stock solution (e.g., 1 mL) and diluted to the appropriate final concentrations with the addition of 10 mL of an aqueous mixture of 1.5% (v/v) crop oil concentrate so that the final spray solutions contain 1.25% (v/v) crop oil concentrate. When technical materials are used, the concentrated stock solutions can be added to the spray solutions so that the final acetone and DMSO concentrations of the application solutions are […], respectively. […]
# PAPRH = assay: Example III: post-emergence foliar-applied weed control in cereal crops, greenhouse; type: in vivo, Papaver rhoeas L.; conditions: 21 DAA
# Procedure: as §1, §2, §3, §4, §5
# CYPES = assay: Example I: postemergence foliar-applied weed control, greenhouse; type: in vivo, Cyperus esculentus L. (yellow nutsedge)
# LEFCH = assay: as above; type: in vivo, Leptochloa chinensis (L.) Nees (Chinese sprangletop); conditions: foliar
# Text: as §6, §7, §8, §9, §10, §11
# CYPIR = assay: as above; type: in vivo, Cyperus iria L. (rice flatsedge); conditions: foliar
# Text: as §6, §7, §8, §9, §10, §11
# IPOHE = assay: Example IV: pre-emergence soil-applied weed control, greenhouse; type: in vivo, Ipomoea hederacea Jacq. (ivyleaf morningglory); conditions: 28 DAA
# Text: Seeds or nutlets of the desired test plant species were planted in a soil matrix prepared by mixing a loam soil (32 percent silt, 23 percent clay, and 45 percent sand, with a pH of about 6.5 and an organic matter content of about 1.9 percent) and calcareous grit in an 80 to 20 ratio. The soil matrix was contained in plastic pots with a volume of 1 quart and a surface area of 83.6 square centimeters (cm^2).
# as §7, with “benzyl ester” for “acid or esters”, “(compound A)” for “(Compound A), each”, “concentrate)” for “concentrate),”
# Other herbicidal components were applied on an active ingredient basis and included very long chain fatty acid (VLCFA) synthesis-inhibiting and fatty acid/lipid synthesis-inhibiting herbicides alachlor (technical grade material), dimethenamid-P formulated as Outlook®, and S-metolachlor formulated as Dual® II Magnum.
# as §9
# as §10, with “oil concentrate (COC)” for “oil concentrated”, “(v/v) COC” for “(v/v) crop oil concentrate”, “contained 1.25%” for “contained 1.25+/−0.05%”, “(v/v) COC.” for “(v/v) crop oil concentrate.”
# For treatments comprised of technical compounds, weighed amounts can be placed individually in 25 mL glass vials and dissolved in a volume of 97:3 (v/v) acetone/DMSO to obtain 12× stock solutions. […] Application solutions can be prepared by adding an appropriate amount of each stock solution (e.g., 1 mL) and diluted to the appropriate final concentrations with the addition of 10 mL of an aqueous mixture of 1.5% (v/v) COC so that the final spray solutions contain 1.25% (v/v) COC. When technical materials are used, the concentrated stock solutions can be added to the spray solutions so that the final acetone and DMSO concentrations of the application solutions are 16.2% and 0.5%, respectively.
# For treatments comprised of formulated and technical compounds, weighed amounts of the technical materials were placed individually in 25 mL glass vials and dissolved in a volume of 97:3 (v/v) acetone/DMSO to obtain 12× stock solutions, and measured amounts of the formulated compounds were placed individually in 25 mL glass vials and diluted in a volume of 1.5% (v/v) COC or water to obtain 12× stock solutions. […] Application solutions were prepared by adding an appropriate amount of each stock solution (e.g., 1 mL) and diluted to the appropriate final concentrations with the addition of an appropriate amount of an aqueous mixture of 1.5% (v/v) COC so that the final spray solutions contained 1.25% (v/v) COC. As required, additional water and/or 97:3 (v/v) acetone/DMSO was added to individual application solutions so that the final acetone and DMSO concentrations of the application solutions being compared were 8.1% and 0.25%, respectively.
# All stock solutions and applications solutions were visually inspected for compound compatibility prior to application. Spray solutions were applied to the soil with an overhead Mandel track sprayer equipped with a 8002E nozzles calibrated to deliver 187 L/ha over an application area of 0.503 m^2 at a spray height of 18 inches (46 cm) above average pot height. Control pots were sprayed in the same manner with the solvent blank.
# The treated and control pots were placed in a greenhouse and top watered as needed. […]
# ECHCG = assay: Example I: postemergence foliar-applied weed control, greenhouse; type: in vivo, Echinochloa crus-galli (L.) Beauv. (barnyardgrass); conditions: foliar
# Text: as §6, §7, §8, §9, §10, §11
compound,measurement,setting,value
"CC(C)N(C(=O)COc1nnc(C(F)(F)F)s1)c1ccc(F)cc1 [Flufenacet, N-(4-fluorophenyl)-N-(1-methylethyl)-2-[[5-(trifluoromethyl)-1,3,4-thiadiazol-2-yl]oxy]acetamide]",Visual Weed Control KCHSC Obs,KCHSC; 60 gai/ha,5%
same,Visual Weed Control KCHSC Obs,KCHSC; 120 gai/ha,5%
same,Visual Weed Control KCHSC Obs,KCHSC; 240 gai/ha,17%
same,Visual Weed Control CHEAL Obs,CHEAL; 60 gai/ha,0%
same,Visual Weed Control CHEAL Obs,CHEAL; 120 gai/ha,0%
same,Visual Weed Control CIRAR Obs,CIRAR; 60 gai/ha,0%
same,Visual Weed Control CIRAR Obs,CIRAR; 120 gai/ha,0%
same,Visual Weed Control CIRAR Obs,CIRAR; 240 gai/ha,17%
same,Visual Weed Control SASKR Obs,SASKR; 60 gai/ha,5%
same,Visual Weed Control SASKR Obs,SASKR; 120 gai/ha,5%
same,Visual Weed Control SASKR Obs,SASKR; 240 gai/ha,13%
same,Visual Weed Control SINAR Obs,SINAR; 60 gai/ha,5%
same,Visual Weed Control SINAR Obs,SINAR; 120 gai/ha,8%
same,Visual Weed Control STEME Obs,STEME; 60 gai/ha,0%
same,Visual Weed Control STEME Obs,STEME; 120 gai/ha,5%
same,Visual Weed Control STEME Obs,STEME; 240 gai/ha,42%
same,Visual Weed Control (%) - 22 DAA BRAPP Obs,BRAPP; 187.5 gai/ha,10%
same,Visual Weed Control (%) - 22 DAA BRAPP Obs,BRAPP; 375 gai/ha,20%
same,Visual Weed Control (%) - 22 DAA BRAPP Obs,BRAPP; 750 gai/ha,40%
same,Visual Weed Control PAPRH Obs,PAPRH; 60 gai/ha,0%
same,Visual Weed Control PAPRH Obs,PAPRH; 120 gai/ha,5%
same,Visual Weed Control PAPRH Obs,PAPRH; 240 gai/ha,7%
"CCOCCN(C(=O)CCl)C(=C(C)C)c1ccccc1 [Pethoxamid, 2-Chloro-N-(2-ethoxyethyl)-N-(2-methyl-1-phenyl-1-propen-1-yl)acetamide]",Visual Weed Control (%) - 21 DAA CYPES Obs,CYPES; 305 gai/ha,0%
same,Visual Weed Control (%) - 21 DAA CYPES Obs,CYPES; 610 gai/ha,25%
same,Visual Weed Control (%) - 21 DAA CYPES Obs,CYPES; 1220 gai/ha,65%
same,Visual Weed Control (%) - 21 DAA LEFCH Obs,LEFCH; 305 gai/ha,10%
same,Visual Weed Control (%) - 21 DAA LEFCH Obs,LEFCH; 610 gai/ha,10%
same,Visual Weed Control (%) - 21 DAA CYPIR Obs,CYPIR; 305 gai/ha,40%
same,Visual Weed Control (%) - 21 DAA CYPIR Obs,CYPIR; 610 gai/ha,80%
same,Visual Weed Control (%) - 21 DAA CYPIR Obs,CYPIR; 1220 gai/ha,85%
CCc1cccc(C)c1N(C(=O)CCl)C(C)COC (centres unmarked) [S-Metolachlor],Visual Weed Control IPOHE Obs,IPOHE; 387.5 gai/ha,25%
same,Visual Weed Control IPOHE Obs,IPOHE; 775 gai/ha,0%
same,Visual Weed Control IPOHE Obs,IPOHE; 1550 gai/ha,33%
same,Visual Weed Control (%) - 20 DAA ECHCG Obs,ECHCG; 387.5 gai/ha,20%
same,Visual Weed Control (%) - 20 DAA ECHCG Obs,ECHCG; 775 gai/ha,55%

# Reference: patent US20130310256A1, “HERBICIDAL COMPOSITIONS COMPRISING 4-AMINO-3-CHLORO-5-FLUORO-6-(4-CHLORO-2-FLUORO-3-METHOXYPHENYL) PYRIDINE-2-CARBOXYLIC ACID OR A DERIVATIVE THEREOF AND VLCFA AND LIPID SYNTHESIS INHIBITING HERBICIDES” (DOW AGROSCIENCES LLC, priority 2008, published 2013)
